Data on 1 compound can be found in EP0490598A1 (priority 1990, dated 1992).

Values after ≈ are worked out from the molar mass of the structure shown. Like-named read-outs stand apart in the source and are kept apart here.

The subject of one experiment is BHK cells. As to the kind of experiment: Cytotoxicity assay, BHK cell growth (cell counting). The class given is cell-based, hamster. The settings on record: Mesocricetus auratus, 72 h, three days of incubation, read-out: IC50 ng/ml approx. The method, then: (§1) Pateamine was diluted in MeOH/CH₂Cl₂ 1:1 at 100 ng/ml and it has been tested at different concentrations. The solvent was allowed to evaporate before the cells were seeded.
It has been done two kinds of cytotoxicity assays, one of them employing the same screening protocols and another one with the MTT method. In both cases the cells were: CV-1 (monkey kidney fribroblast) BHK (hamster kidney fibroblast)
BHK cells were seeded into 16 mm wells at 2 x 10⁴ per well. The day after the inoculum was replaced by 1 ml aliquots of MEM 10FCS containing the indicated concentration of drug. All determinations were carried out in duplicate. After three days of incubation cells were counted and the IC₅₀ was determined.

In a further experiment the test system is Balb/c lymphocytes. As to the kind of experiment: Lymphocyte Viability (LCV) assay, MTT. To be noted: Mus musculus, 96 hours, 50% viability. The class given is cell-based, mice. On the procedure:
(§2) Murine lymphocytes were derived by splenectomy, under sterile conditions, from Balb/c and C57B1/6 mice sacrificed by cervical dislocation. Spleens were homogenized in 15 mM RPMI medium […], 87%; fetal calf serum, 10%; L-glutamine (200 mM), 2% and supplemented with 1% antibiotic-antimycotic solution (GIBCO) and 25 µg/ml gentamycin. Red blood cells were lysed by brief exposure to sterile, distilled water and subsequently reconstituted to normal tonicity with PBS (10x). The final cell preparation was enumerated, and the viability evaluated, by means of a hemacytometer using the trypan blue exclusion method.
The LCV is an in vitro cytotoxicity assay for murine lymphocytes designed by the investigator. […] The percent viable cells is determined by the MTT-thiazolyl blue method after a similar incubation in the MLR of lymphocytes with the test sample. […] If there is no significant reduction in cell viability, as determined by this detection method, then damaged cells are probably not present for low data values generated in the MLR. Colorimetric data from the LeV is calculated as a percentage of viability, relative to control, using the following formula: (Experimental value - (Nonspecific Color))/(Positive Control - (Media))x 100 [formula] […]

Experiment [1] relates to VSV (vesicular stomatitis virus). The class given is cell-based. To be noted: VSV in BHK cells.
In another experiment the test system is P-388 cells. As to the kind of experiment: Antitumoral assay, P-388 cell growth (cell counting). To be noted: for IC50: Mus musculus. The experiment is classed as cell-based, mouse. The method, then: as §1
Four general anitumoural assays, employing the current screening protocols have been carried out using the following cells: P-388 (lymphoid neoplasm from DBA/2 mouse) A-549 (human lung carcinoma) HT-29 (human colon carcinoma) KB (human oral epidermoid carcinoma)
P-388 cells were seeded into 16 mm wells at 1 x 10⁴ per well in […] aliquots of MEM 10FCS containing the indicated concentration or drug. All determinations were carried out in duplicate. After three days of incubation cells were counted and the IC₅₀ was determined.

For a further experiment, the system named is murine lymphocytes. Briefly: Mixed Lymphocyte Reaction (MLR) assay. The settings on record: Mus musculus, two-way MLR, Balb/c and C57B1/6 lymphocytes, 96 hours, 3H-thymidine. The class given is cell-based, mice. On the procedure: as §2
The MLR is an in vitro test of cellular immunity in which murine lymphocytes from genetically dissimilar animals are cocultured to mutually induce cell proliferation (i.e. two-way MLR method). […] Data from the MLR is generated as dpm of radioactivity which is then expressed as a percentage of cellular activity, relative to control, using the following reduced formula: (Experimental value - (Balb/c - C57B1/6 - Media))/(Positive Control - (Balb/c - C57B1/6 - Media))x 100 [formula] […]
Reconstituted compound at each of several concentrations was added in duplicate (10µl) into wells of a 96-well microtiter plate and evaporated to dryness at room temperature. […] The radioactivity from DNA-bound 3H thymidine was counted using a dry INOTECH counter. Results were calculated as described above.

For the compound `CC(/C=C/C(C)=C/C1Cc2nc(cs2)C(C)CC(N)CC(=O)OC(C)C/C(C)=C/C=C\C(=O)O1)=C\CN(C)C` (centres unmarked) [PATEAMINE, pateamine], the IC50 with BHK cells was roughly 3 ng/mL (≈ 5.4 nM); in the experiment on Balb/c lymphocytes it was 4100 ng/mL (≈ 7380 nM); with P-388 cells (P388, 72 h, P-388, three days of incubation, read-out: IC50 ng/ml approx.) it was roughly 0.3 ng/mL (≈ 0.54 nM); in the experiment on P-388 cells (P388, read-out: IC50), 0.15 ng/mL (≈ 0.27 nM); with murine lymphocytes, less than 1.5 ng/mL. The compound also came in with an IC50 ng/disk in experiment [1] greater than 10 ng/disk. Moreover, the “% Inhibition BHK/VSV (sign for plaque reduction)” value in experiment [1] (10ng) is on record as 14 - (The sign (-), indicates no inhibition of virus replication.). In addition, the “% Inhibition P-388 cell growth” value was 11% with P-388 cells (0.1ng, three days of incubation); 100% with P-388 cells (1ng, three days of incubation); 100% in the experiment with P-388 cells (5ng, three days of incubation); 100% in the experiment with P-388 cells (10ng, three days of incubation).
